The source of these data is publication PMC7175278, “2-Oxoester Phospholipase A2 Inhibitors with Enhanced Metabolic Stability” (Biomolecules, 2020).

In the experiment the target is T1, GIVA cPLA2 (Homo sapiens, UniProt P47712).
T1 construct: gene PLA2G4A
T1 sequence (P47712 1-749): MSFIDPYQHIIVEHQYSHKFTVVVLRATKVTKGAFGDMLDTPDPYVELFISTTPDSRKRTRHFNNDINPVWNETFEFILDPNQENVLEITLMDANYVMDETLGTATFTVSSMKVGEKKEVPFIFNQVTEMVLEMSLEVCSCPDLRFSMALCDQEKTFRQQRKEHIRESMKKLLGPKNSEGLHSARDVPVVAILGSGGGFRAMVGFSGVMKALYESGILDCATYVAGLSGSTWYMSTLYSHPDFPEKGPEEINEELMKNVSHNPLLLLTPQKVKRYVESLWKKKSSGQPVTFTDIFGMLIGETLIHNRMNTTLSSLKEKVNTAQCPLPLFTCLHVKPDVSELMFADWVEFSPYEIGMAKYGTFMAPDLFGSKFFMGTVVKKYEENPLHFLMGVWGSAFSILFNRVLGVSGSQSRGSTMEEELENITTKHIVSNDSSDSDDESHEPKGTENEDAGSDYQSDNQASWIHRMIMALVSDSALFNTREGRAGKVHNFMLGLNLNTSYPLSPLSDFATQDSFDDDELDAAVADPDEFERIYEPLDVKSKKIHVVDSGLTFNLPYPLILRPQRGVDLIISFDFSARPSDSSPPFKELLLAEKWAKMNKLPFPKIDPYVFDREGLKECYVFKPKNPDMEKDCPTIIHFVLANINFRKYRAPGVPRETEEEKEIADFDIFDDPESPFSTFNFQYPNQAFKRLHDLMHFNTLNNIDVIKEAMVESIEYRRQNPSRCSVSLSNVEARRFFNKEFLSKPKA
As to the kind of experiment: LC/MS lipidomics-based mixed micelle assay with recombinant human enzyme, dose-response. The experiment is classed as biochemical.

Regarding `CC(CCCC(=O)O)OC(=O)C(=O)CCCCc1ccc(-c2ccccc2)cc1` (centres unmarked) [17b, 5-((6-([1,1’-Biphenyl]-4-yl)-2-oxohexanoyl)oxy)hexanoic acid], the “GIVA cPLA2 / XI(50)” value is on record as 0.0012 ± 0.00008 mole fraction (XI(50)).
For the molecule `CC(CCCc1ccc(-c2ccccc2)cc1)C(=O)C(=O)OCCCCC(=O)O` (centres unmarked) [17a, 5-((6-([1,1’-Biphenyl]-4-yl)-3-methyl-2-oxohexanoyl)oxy)pentanoic acid], the “GIVA cPLA2 / XI(50)” value is 0.00036 ± 0.00007 mole fraction (XI(50)).
